Source: patent publication US8785460B2, “Tricyclic compounds and use thereof” (Takeda Pharmaceutical Company Limited, priority 2008, dated 2014)

Tests used:
human CRF1 receptor = biological target: T1, human CRF1 receptor (Homo sapiens, UniProt P34998); test: Measurement of CRF Binding Inhibitory Rate (receptor binding experiment with 125I-CRF); conditions: human CRF1 receptor expressing CHO cellular membrane fraction, 50 pM 125I-CRF, room temperature 1.5 hr, 0.05 nM to 10 μM of compound; read-out: IC50 values (CRF binding inhibition)
T1 construct: expressed in transfected cells; host or cells: CHO cells (membrane fraction)
T1 sequence (P34998 24-415): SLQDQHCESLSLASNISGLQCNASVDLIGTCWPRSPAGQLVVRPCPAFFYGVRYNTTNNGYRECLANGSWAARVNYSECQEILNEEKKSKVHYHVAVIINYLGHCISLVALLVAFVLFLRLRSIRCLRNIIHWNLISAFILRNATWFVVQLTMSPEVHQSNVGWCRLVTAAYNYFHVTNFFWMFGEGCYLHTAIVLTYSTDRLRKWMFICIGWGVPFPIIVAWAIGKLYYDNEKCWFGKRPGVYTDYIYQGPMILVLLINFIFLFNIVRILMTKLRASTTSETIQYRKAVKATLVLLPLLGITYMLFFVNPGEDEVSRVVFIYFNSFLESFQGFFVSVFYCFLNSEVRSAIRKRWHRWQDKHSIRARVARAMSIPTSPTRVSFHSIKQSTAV

Structure (SMILES) | melting point [°C] | IC50 (human CRF1 receptor) [nM]
COCC(=O)OC(c1ccc(Cl)c2nc3n(c12)CCCN3c1ccc(Cl)cc1Cl)C1CC1 (centres unmarked) [Example 479] | 159 to 161 | < 1000
CCC(NC(=O)CC(F)(F)F)c1ccc(Cl)c2nc3n(c12)CCCN3c1ccc(Cl)cc1Cl (centres unmarked) [Example 447, N-{1-[9-Chloro-1-(2,4-dichlorophenyl)-1,2,3,4-tetrahydropyrimido[1,2-a]benzimidazol-6-yl]propyl}-3,3,3-trifluoropropanamide] | 285 to 290 | < 1000
CCN(CC)c1cccc2nc3n(c12)CCCCCN3c1ccc(Cl)cc1Cl [Example 102, 1-(2,4-Dichlorophenyl)-N,N-diethyl-1,2,3,4,5,6-hexahydro[1,3]diazocino[1,2-a]benzimidazol-8-amine] | 120 to 121 | < 1000
CCC(OC(=O)C1CC1)c1ccc(Cl)c2nc3n(c12)CCCN3c1ccc(OC)nc1C (centres unmarked) [Example 268, 1-[9-Chloro-1-(6-methoxy-2-methylpyridin-3-yl)-1,2,3,4-tetrahydropyrimido[1,2-a]benzimidazol-6-yl]propyl cyclopropanecarboxylate] | 149 to 151 | < 1000
CCC(OC(=O)C1CC1)c1ccc(Cl)c2nc3n(c12)CCCN3c1ncc(Cl)cc1Cl (centres unmarked) [Example 172, 1-[9-Chloro-1-(3,5-dichloropyridin-2-yl)-1,2,3,4-tetrahydropyrimido[1,2-a]benzimidazol-6-yl]propyl cyclopropanecarboxylate] | 154 to 155 | < 1000
Cc1nc(C#N)ccc1N1CCCn2c1nc1c(Cl)ccc(C(OC(F)F)C(F)(F)F)c12 (centres unmarked) [Example 292, 5-{9-Chloro-6-[1-(difluoromethoxy)-2,2,2-trifluoroethyl]-3,4-dihydropyrimido[1,2-a]benzimidazol-1(2H)-yl}-6-methylpyridine-2-carbonitrile] | 177 to 180 | < 1000
CCC(CC)c1ccc(Cl)c2nc3n(c12)CCCCN3c1ncc(C(F)(F)F)cc1Cl [Example 63, 10-Chloro-1-[3-chloro-5-(trifluoromethyl)pyridin-2-yl]-7-(1-ethylpropyl)-2,3,4,5-tetrahydro-1H-[1,3]diazepino[1,2-a]benzimidazole] | 108 to 110 | < 1000
CCN(CC)c1cccc2nc3n(c12)CC(O)CCN3c1ccc(Cl)cc1Cl (centres unmarked) [Example 70, 1-(2,4-Dichlorophenyl)-7-(diethylamino)-2,3,4,5-tetrahydro-1H-[1,3]diazepino[1,2-a]benzimidazol-4-ol] | 207 to 208 | < 1000
CCC(CC)c1ccc(Cl)c2nc3n(c12)CCCCN3c1ncc(C#N)cc1C [Example 339, 6-[10-Chloro-7-(1-ethylpropyl)-2,3,4,5-tetrahydro-1H-[1,3]diazepino[1,2-a]benzimidazol-1-yl]-5-methylpyridine-3-carbonitrile] | 213 | < 1000
CCC(CC)c1ccc(Cl)c2nc3n(c12)CCCCN3c1cnc(Br)c(C)c1 [Example 338, 1-(6-Bromo-5-methylpyridin-3-yl)-10-chloro-7-(1-ethylpropyl)-2,3,4,5-tetrahydro-1H-[1,3]diazepino[1,2-a]benzimidazole] | 137 to 140 | < 1000
CCc1cc(CC)n(-c2ccc(Cl)c3nc4n(c23)CCCN4c2ccc(Cl)cc2Cl)n1 [Example 197, 9-Chloro-1-(2,4-dichlorophenyl)-6-(3,5-diethyl-1H-pyrazol-1-yl)-1,2,3,4-tetrahydropyrimido[1,2-a]benzimidazole] | 185 to 187 | < 1000
CCOC(CC)c1ccc(Cl)c2nc3n(c12)CCCN3c1cnc(N(C)C)cc1C (centres unmarked) [Example 156, 5-[9-Chloro-6-(1-ethoxypropyl)-3,4-dihydropyrimido[1,2-a]benzimidazol-1(2H)-yl]-N,N,4-trimethylpyridin-2-amine] | 179 to 180 | < 1000
Cc1nc(C2CC2)nc(C)c1N1CCCn2c1nc1c(Cl)ccc(C(OC(F)F)C(F)(F)F)c12 (centres unmarked) [Example 218, 9-Chloro-1-(2-cyclopropyl-4,6-dimethylpyrimidin-5-yl)-6-[1-(difluoromethoxy)-2,2,2-trifluoroethyl]-1,2,3,4-tetrahydropyrimido[1,2-a]benzimidazole] | 191 to 193 | < 1000
CCC(CC)c1ccc(Cl)c2nc3n(c12)CCCC(=O)N3c1ccc(Cl)cc1Cl [Example 22, 10-Chloro-1-(2,4-dichlorophenyl)-7-(1-ethylpropyl)-4,5-dihydro-1H-[1,3]diazepino[1,2-a]benzimidazol-2(3H)-one] | 135 to 137 | < 1000
CCC(OC(C)=O)c1ccc(Cl)c2nc3n(c12)CCCN3c1cnc(N(C)C)cc1C (centres unmarked) [Example 155, 1-{9-Chloro-1-[6-(dimethylamino)-4-methylpyridin-3-yl]-1,2,3,4-tetrahydropyrimido[1,2-a]benzimidazol-6-yl}propyl acetate] | 159 to 160 | < 1000
CCC(CC)c1ccc(Cl)c2nc3n(c12)CCCCN3c1ccc(Cl)cc1Cl [Example 21, 10-Chloro-1-(2,4-dichlorophenyl)-7-(1-ethylpropyl)-2,3,4,5-tetrahydro-1H-[1,3]diazepino[1,2-a]benzimidazole] | 160 to 162 | < 1000
CCC(OC(=O)C1CC1)c1ccc(Cl)c2nc3n(c12)CCCN3c1ccc(Cl)cc1Cl (centres unmarked) [Example 431, 1-[9-Chloro-1-(2,4-dichlorophenyl)-1,2,3,4-tetrahydropyrimido[1,2-a]benzimidazol-6-yl]propyl cyclopropanecarboxylate] | 159 to 161 | < 1000
COCC(C)(C)c1ccc(Cl)c2nc3n(c12)CCCN3c1ccc(Cl)cc1Cl [Example 150, 9-Chloro-1-(2,4-dichlorophenyl)-6-(2-methoxy-1,1-dimethylethyl)-1,2,3,4-tetrahydropyrimido[1,2-a]benzimidazole] | 188 to 190 | < 1000
CCC(CC(N)=O)c1cccc2nc3n(c12)CCCN3c1ccc(Cl)cc1Cl (centres unmarked) [Example 205, 3-[1-(2,4-Dichlorophenyl)-1,2,3,4-tetrahydropyrimido[1,2-a]benzimidazol-6-yl]pentanamide] | 132 to 133 | < 1000
CCC(CCO)c1ccc(Cl)c2nc3n(c12)CCCN3c1ccc(Cl)cc1Cl (centres unmarked) [Example 450, 3-[9-Chloro-1-(2,4-dichlorophenyl)-1,2,3,4-tetrahydropyrimido[1,2-a]benzimidazol-6-yl]pentan-1-ol] | 183 to 185 | < 1000
CCC(CC)c1cccc2nc3n(c12)CCCCN3c1ccc(OC)cc1OC [Example 37, 1-(2,4-Dimethoxyphenyl)-7-(1-ethylpropyl)-2,3,4,5-tetrahydro-1H-[1,3]diazepino[1,2-a]benzimidazole] | 145 to 148 | < 1000
CCOc1ccc(N2CCCn3c2nc2c(Cl)ccc(C(OC(F)F)C(F)(F)F)c23)c(C)c1 (centres unmarked) [Example 356, 9-Chloro-6-[1-(difluoromethoxy)-2,2,2-trifluoroethyl]-1-(4-ethoxy-2-methylphenyl)-1,2,3,4-tetrahydropyrimido[1,2-a]benzimidazole] | 179 to 182 | < 1000
CCN(CC)c1cccc2nc3n(c12)CCN(C)C3c1ccc(Cl)cc1Cl (centres unmarked) [Example 506, 1-(2,4-Dichlorophenyl)-N,N-diethyl-2-methyl-1,2,3,4-tetrahydropyrazino[1,2-a]benzimidazol-6-amine] | 186 to 187 | < 1000
Cc1nc(OC(F)F)nc(C)c1N1CCCn2c1nc1c(Cl)ccc(C(OC(F)F)C(F)(F)F)c12 (centres unmarked) [Example 216, 9-Chloro-1-[2-(difluoromethoxy)-4,6-dimethylpyrimidin-5-yl]-6-[1-(difluoromethoxy)-2,2,2-trifluoroethyl]-1,2,3,4-tetrahydropyrimido[1,2-a]benzimidazole] | 165 to 166 | < 1000
CCC(CC)c1ccc(Cl)c2nc3n(c12)CC(=O)N3c1ccc(Cl)cc1Cl [Example 4, 8-Chloro-1-(2,4-dichlorophenyl)-5-(1-ethylpropyl)-1H-imidazo[1,2-a]benzimidazol-2(3H)-one] | 200 to 202 | < 1000
COC(C)(C)c1ccc(Cl)c2nc3n(c12)CCCN3c1ccc(Cl)cc1Cl [Example 109, 9-Chloro-1-(2,4-dichlorophenyl)-6-(1-methoxy-1-methylethyl)-1,2,3,4-tetrahydropyrimido[1,2-a]benzimidazole] | 203 to 204 | < 1000
CCC(OCC(F)(F)F)c1ccc(Cl)c2nc3n(c12)CCCN3c1ccc(Cl)cc1Cl (centres unmarked) [Example 454, 9-Chloro-1-(2,4-dichlorophenyl)-6-[1-(2,2,2-trifluoroethoxy)propyl]-1,2,3,4-tetrahydropyrimido[1,2-a]benzimidazole] | 146 to 148 | < 1000
CCC(CC)c1ccc(Cl)c2nc3n(c12)CCCCN3c1ccc(S(C)(=O)=O)cc1C [Example 46, 10-Chloro-7-(1-ethylpropyl)-1-[2-methyl-4-(methylsulfonyl)phenyl]-2,3,4,5-tetrahydro-1H-[1,3]diazepino[1,2-a]benzimidazole] | 170 to 171 | < 1000
